Measurements reported in patent publication US12662475B2, “Difluorocyclohexyl derivatives as IL-17 modulators” (UCB BIOPHARMA SRL, priority 2020, dated 2026).

tested on: IL-17 induced IL-6 release from human dermal fibroblasts; test: Inhibition of IL-17A induced IL-6 release from dermal fibroblast cell line (HDF cell line assay); type: cell-based; settings: Incubation Time 5 h
Description: Inhibition of IL-17A Induced IL-6 Release from Dermal Fibroblast Cell Line
The purpose of this assay is to test the neutralising ability to IL-17 proteins, in a human primary cell system.
The resultant IL-6 response was then measured using a homogenous time-resolved FRET kit from Cisbio. The kit utilises two monoclonal antibodies, one labelled with Eu-Cryptate (Donor) and the second with d2 or XL665 (Acceptor).
The ability of a compound to inhibit IL-17 induced IL-6 release from human dermal fibroblasts is measured in this assay.
The TrypLE was neutralised using complete medium (45 mL) and the cells were centrifuged at 300×g for 3 minutes. […] The cells were left for a minimum of three hours, at 37° C./5% CO2, to adhere to the plate.
10 μL from the aqueous dilution plate was transferred to the reagent plate containing 30 μL of the diluted cytokines, to give a 2.5% DMSO solution. The compounds were incubated with the cytokine mixtures for 1 h or 5 h at 37° C. After the incubation, 10 μL was transferred to the assay plate, to give a […] solution, then incubated for 18-20 h at 37° C./5% CO2.

Structure (SMILES) | IC50 [nM]
CCS(=O)(=O)CCC(C(=O)N1CC(F)(F)C(F)(F)C1)c1ccc2[nH]c([C@@H](NC(=O)c3nonc3C)C3CCC(F)(F)CC3)nc2c1F (mixture of isomers) [Example 27, N—[(S)-(4,4-Difluorocyclohexyl){5-[3-(ethylsulfonyl)-1-(3,3,4,4-tetrafluoropyrrolidine-1-carbonyl)propyl]-4-fluoro-1H-benzimidazol-2-yl}methyl]-4-methyl-1,2,5-oxadiazole-3-carboxamide] | 6.31
Cc1nonc1C(=O)N[C@H](c1nc2c(F)c(C(CC(F)F)C(=O)N[C@@H](C)C(F)(F)F)ccc2[nH]1)C1CCC(F)(F)CC1 (mixture of isomers) [Example 43, N—{(S)-(4,4-Difluorocyclohexyl)[5-(3,3-difluoro-1-{[(1S)-2,2,2-trifluoro-1-methylethyl]-carbamoyl}propyl)-4-fluoro-1H-benzimidazol-2-yl]methyl}-4-methyl-1,2,5-oxadiazole-3-carboxamide] | 50.1
Cc1nonc1C(=O)N[C@H](c1nc2c(F)c(C(CC(F)F)C(=O)N[C@H](C)C(F)(F)F)ccc2[nH]1)C1CCC(F)(F)CC1 (mixture of isomers) [Example 46, N—{(S)-(4,4-Difluorocyclohexyl)[5-(3,3-difluoro-1-{[(1R)-2,2,2-trifluoro-1-methylethyl]-carbamoyl}propyl)-4-fluoro-1H-benzimidazol-2-yl]methyl}-4-methyl-1,2,5-oxadiazole-3-carboxamide] | 398
CC(C)n1ncnc1C(=O)N[C@H](c1nc2c(F)c(C(CC(F)F)C(=O)NCC(C)(F)F)ccc2[nH]1)C1CCC(F)(F)CC1 (mixture of isomers) [Example 53, N—[(S)-(4,4-Difluorocyclohexyl){5-[1-(2,2-difluoropropylcarbamoyl)-3,3-difluoropropyl]-4-fluoro-1H-benzimidazol-2-yl}methyl]-2-isopropyl-1,2,4-triazole-3-carboxamide] | 63.1
CC(C)n1ncnc1C(=O)N[C@H](c1nc2c(F)c(C(CC(F)(F)F)C(=O)NCC(C)(F)F)ccc2[nH]1)C1CCC(F)(F)CC1 (mixture of isomers) [Example 68, N—[(S)-(4,4-Difluorocyclohexyl){5-[1-(2,2-difluoropropylcarbamoyl)-3,3,3-trifluoro-propyl]-4-fluoro-1H-benzimidazol-2-yl}methyl]-2-isopropyl-1,2,4-triazole-3-carboxamide] | 12.6
CC(C)n1ncnc1C(=O)N[C@H](c1nc2c(F)c(C(CC(F)(F)F)C(=O)NCC(C)(C)F)ccc2[nH]1)C1CCC(F)(F)CC1 (mixture of isomers) [Example 71, N—[(S)-(4,4-Difluorocyclohexyl)(4-fluoro-5-{3,3,3-trifluoro-1-[(2-fluoro-2-methyl-propyl)carbamoyl]propyl}-1H-benzimidazol-2-yl)methyl]-2-isopropyl-1,2,4-triazole-3-carboxamide] | 25.1
CC(F)(F)CNC(=O)C(CC(F)(F)F)c1ccc2[nH]c([C@@H](NC(=O)C3(F)CC3)C3CCC(F)(F)CC3)nc2c1F (mixture of isomers) [Example 82, N—[(S)-(4,4-Difluorocyclohexyl){5-[1-(2,2-difluoropropylcarbamoyl)-3,3,3-trifluoro-propyl]-4-fluoro-1H-benzimidazol-2-yl}methyl]-1-fluorocyclopropanecarboxamide] | 25.1
CC(C)n1ncnc1C(=O)N[C@H](c1nc2c(F)c([C@H](CC(C)(F)F)C(=O)NCC(C)(F)F)ccc2[nH]1)C1CCC(F)(F)CC1 (mixture of isomers) [Example 85, N—[(S)-(4,4-Difluorocyclohexyl){5-[1-(2,2-difluoropropylcarbamoyl)-3,3-difluorobutyl]-4-fluoro-1H-benzimidazol-2-yl}methyl]-2-isopropyl-1,2,4-triazole-3-carboxamide] | 12.6
Cc1nonc1C(=O)N[C@H](c1nc2c(F)c(C(CC(F)(F)F)C(=O)N[C@@H](C)C(F)(F)F)ccc2[nH]1)C1CCC(F)(F)CC1 (mixture of isomers) [Example 15, N—{(S)-(4,4-Difluorocyclohexyl)[4-fluoro-5-(3,3,3-trifluoro-1-{[(1S)-2,2,2-trifluoro-1-methylethyl]carbamoyl}propyl)-1H-benzimidazol-2-yl]methyl}-4-methyl-1,2,5-oxadiazole-3-carboxamide] | 20
Cc1nonc1C(=O)N[C@H](c1nc2c(F)c(C(CC(F)(F)F)C(=O)NCC(F)(F)F)ccc2[nH]1)C1CCC(F)(F)CC1 (mixture of isomers) [Example 33, N—[(S)-(4,4-Difluorocyclohexyl){4-fluoro-5-[3,3,3-trifluoro-1-(2,2,2-trifluoroethyl-carbamoyl)propyl]-1H-benzimidazol-2-yl}methyl]-4-methyl-1,2,5-oxadiazole-3-carboxamide] | 3.98
Cc1nonc1C(=O)N[C@H](c1nc2c(F)c(C(CC(F)(F)F)C(=O)NCC(F)F)ccc2[nH]1)C1CCC(F)(F)CC1 (mixture of isomers) [Example 36, N—[(S)-(4,4-Difluorocyclohexyl){5-[1-(2,2-difluoroethylcarbamoyl)-3,3,3-trifluoro-propyl]-4-fluoro-1H-benzimidazol-2-yl}methyl]-4-methyl-1,2,5-oxadiazole-3-carboxamide] | 31.6
Cc1nonc1C(=O)N[C@H](c1nc2c(F)c(C(CC(F)F)C(=O)NCC(F)(F)F)ccc2[nH]1)C1CCC(F)(F)CC1 (mixture of isomers) [Example 40, N—[(S)-(4,4-Difluorocyclohexyl){5-[3,3-difluoro-1-(2,2,2-trifluoroethylcarbamoyl)-propyl]-4-fluoro-1H-benzimidazol-2-yl}methyl]-4-methyl-1,2,5-oxadiazole-3-carboxamide] | 7.94
O=C(N[C@H](c1nc2c(F)c(C(CC(F)F)C(=O)NCC(F)(F)F)ccc2[nH]1)C1CCC(F)(F)CC1)c1ccccc1F (mixture of isomers) [Example 49, N—[(S)-(4,4-Difluorocyclohexyl){5-[3,3-difluoro-1-(2,2,2-trifluoroethylcarbamoyl)-propyl]-4-fluoro-1H-benzimidazol-2-yl}methyl]-2-fluorobenzamide] | 31.6
CC(C)(F)CNC(=O)C(CC(F)(F)F)c1ccc2[nH]c([C@@H](NC(=O)c3nonc3C3CC3)C3CCC(F)(F)CC3)nc2c1F (mixture of isomers) [Example 62, 4-Cyclopropyl-N—[(S)-(4,4-difluorocyclohexyl)(4-fluoro-5-{3,3,3-trifluoro-1-[(2-fluoro-2-methylpropyl)carbamoyl]propyl}-1H-benzimidazol-2-yl)methyl]-1,2,5-oxadiazole-3-carboxamide] | 5.01
Cc1nonc1C(=O)N[C@H](c1nc2c(F)c([C@H](CC(F)(F)F)C(=O)N[C@@H](C(=O)N(C)C)C(C)C)ccc2[nH]1)C1CCC(F)(F)CC1 (single isomer, unassigned) [Example 11] | 3.98
Cc1nonc1C(=O)N[C@H](c1nc2c(F)c([C@@H](CC(F)(F)F)C(=O)N[C@@H](C(=O)N(C)C)C(C)C)ccc2[nH]1)C1CCC(F)(F)CC1 (single isomer, unassigned) [Example 12] | 126
Cc1nonc1C(=O)N[C@H](c1nc2c(F)c([C@H](CC(F)(F)F)C(=O)N[C@@H](C)C(F)(F)F)ccc2[nH]1)C1CCC(F)(F)CC1 (single isomer, unassigned) [Example 25] | 7.94
Cc1nonc1C(=O)N[C@H](c1nc2c(F)c([C@@H](CC(F)(F)F)C(=O)N[C@@H](C)C(F)(F)F)ccc2[nH]1)C1CCC(F)(F)CC1 (single isomer, unassigned) [Example 26] | 126
CCS(=O)(=O)CC[C@H](C(=O)N1CC(F)(F)C(F)(F)C1)c1ccc2[nH]c([C@@H](NC(=O)c3nonc3C)C3CCC(F)(F)CC3)nc2c1F (single isomer, unassigned) [Example 28] | 3.16
CCS(=O)(=O)CC[C@@H](C(=O)N1CC(F)(F)C(F)(F)C1)c1ccc2[nH]c([C@@H](NC(=O)c3nonc3C)C3CCC(F)(F)CC3)nc2c1F (single isomer, unassigned) [Example 29] | 126
Cc1nonc1C(=O)N[C@H](c1nc2c(F)c([C@H](CC(F)(F)F)C(=O)NCC(F)(F)F)ccc2[nH]1)C1CCC(F)(F)CC1 (single isomer, unassigned) [Example 34] | 2.51
Cc1nonc1C(=O)N[C@H](c1nc2c(F)c([C@@H](CC(F)(F)F)C(=O)NCC(F)(F)F)ccc2[nH]1)C1CCC(F)(F)CC1 (single isomer, unassigned) [Example 35] | 631
Cc1nonc1C(=O)N[C@H](c1nc2c(F)c([C@H](CC(F)(F)F)C(=O)NCC(F)F)ccc2[nH]1)C1CCC(F)(F)CC1 (single isomer, unassigned) [Example 37] | 15.8
Cc1nonc1C(=O)N[C@H](c1nc2c(F)c([C@@H](CC(F)(F)F)C(=O)NCC(F)F)ccc2[nH]1)C1CCC(F)(F)CC1 (single isomer, unassigned) [Example 38] | 100
Cc1nonc1C(=O)N[C@H](c1nc2c(F)c([C@H](CC(F)F)C(=O)NCC(F)(F)F)ccc2[nH]1)C1CCC(F)(F)CC1 (single isomer, unassigned) [Example 41] | 5.01
Cc1nonc1C(=O)N[C@H](c1nc2c(F)c([C@@H](CC(F)F)C(=O)NCC(F)(F)F)ccc2[nH]1)C1CCC(F)(F)CC1 (single isomer, unassigned) [Example 42] | 126
Cc1nonc1C(=O)N[C@H](c1nc2c(F)c([C@H](CC(F)F)C(=O)N[C@@H](C)C(F)(F)F)ccc2[nH]1)C1CCC(F)(F)CC1 (single isomer, unassigned) [Example 44] | 10
